Experimental findings from ChEMBL document CHEMBL1201862, “PubChem BioAssay data set” (2004) are described below.

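Each compound was tested at five concentrations against cells in 96-well plates for 48 hours. At the GI50, growth is halved.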 Active and inactive are the calls of the source. Rule as the data show it: active = GI50 up to about 1.1 µM and inactive = higher.

Among the test systems are 786-0; A549; CAKI-1; CCRF-CEM; COLO 205; EKVX; HOP-62; LOX IMVI; M14; MCF7; MDA-N; NCI-H226; NCI-H23; OVCAR-4; PC-3; SF-295; SW-620; TK-10; UACC-62; UO-31.
Holding throughout (experiment): NCI-60 cell line screen, 48 h

Take `O=c1oc2ccccc2cc1-c1cn2ccccc2n1`: the GI50 in the assay on 786-0 was 3.8 µM (inactive); in the assay with A549 it was 5.48 µM (inactive); in the assay on CAKI-1, 5.75 µM (inactive); in the assay with CCRF-CEM, 5.18 µM (inactive); in the assay with COLO 205 it was 30.1 µM (inactive); in the assay with EKVX, 11.4 µM (inactive). For the same molecule, the GI50 was 3.24 µM (inactive) in the assay on HOP-62; 12.6 µM (inactive) in the assay on LOX IMVI; 8.51 µM (inactive) in the assay with M14; 13.8 µM (inactive) in the assay on MCF7; 4.88 µM (inactive) in the assay on MDA-N; 8.43 µM (inactive) in the assay on NCI-H226. Also, the GI50 in the assay on NCI-H23 was 12.1 µM (inactive); in the assay on OVCAR-4 it was 4.08 µM (inactive); in the assay on PC-3, 4.26 µM (inactive); in the assay on SF-295 it was 3.66 µM (inactive); with SW-620, 10.4 µM (inactive); in the assay with TK-10 it was 8.02 µM (inactive). The GI50 in the assay on UACC-62 is 4.65 µM (inactive); in the assay with UO-31, 2.36 µM (inactive).

With `COc1ccccc1/N=N/C(=N/NC(=O)c1ccc(C)cc1)c1ccc(N(CCC#N)CCC#N)cc1OC`, the GI50 in the assay with 786-0 was 31.7 µM (inactive); in the assay on A549 it was 33.5 µM (inactive); with CAKI-1, 52.7 µM (inactive); in the assay with CCRF-CEM, 18.6 µM (inactive); with COLO 205, 16 µM (inactive); in the assay with EKVX, 26.4 µM (inactive). Also, the GI50 in the assay with HOP-62 is 40.5 µM (inactive); with LOX IMVI, 33.4 µM (inactive); in the assay on M14, 29.4 µM (inactive); in the assay with MCF7, 13.4 µM (inactive); in the assay with MDA-N it was 23.2 µM (inactive); in the assay on NCI-H226, 80 µM (inactive). The GI50 with NCI-H23 was 32.4 µM (inactive); in the assay on OVCAR-4 it was 31.9 µM (inactive); in the assay with PC-3, 26.5 µM (inactive); in the assay with SF-295 it was 41 µM (inactive); in the assay with SW-620, 38.1 µM (inactive); in the assay on TK-10, 68.5 µM (inactive). Further, the values for the GI50 in the assay on UACC-62 and with UO-31 were 38.3 µM (inactive) and 38.5 µM (inactive), respectively.

As for `CC1C[C@]2(C)C(=S)Nc3ccccc3[C@@H]2Nc2ccccc21` (some centres undefined), the GI50 with 786-0 was 16.3 µM (inactive); in the assay with A549, 19.1 µM (inactive); in the assay on CAKI-1, 25.4 µM (inactive); in the assay with CCRF-CEM, 17.9 µM (inactive); with COLO 205 it was 14.2 µM (inactive); in the assay with EKVX it was 22.3 µM (inactive). For the same molecule, the GI50 was 17.7 µM (inactive) in the assay on HOP-62; 13.4 µM (inactive) in the assay with LOX IMVI; 17.4 µM (inactive) in the assay with M14; 13 µM (inactive) in the assay on MCF7; 15 µM (inactive) in the assay with MDA-N; 17.3 µM (inactive) with NCI-H226. Further, the GI50 in the assay on NCI-H23 was 15.2 µM (inactive); with OVCAR-4, 17.8 µM (inactive); with PC-3, 15.4 µM (inactive); with SF-295, 18.5 µM (inactive); in the assay on SW-620, 25.9 µM (inactive); in the assay on TK-10 it was 19 µM (inactive). The GI50 with UACC-62 is 18 µM (inactive); in the assay with UO-31, 18.7 µM (inactive).

Turning to `CC(C)CNC(=O)CCc1cccc2c1oc1c(CCN)cccc12`, the GI50 with 786-0 is 12.4 µM (inactive); in the assay on A549 it was 18.5 µM (inactive); in the assay with CAKI-1 it was 12.9 µM (inactive); in the assay with CCRF-CEM, 3.9 µM (inactive); in the assay with COLO 205, 5.86 µM (inactive); in the assay on EKVX it was 14.3 µM (inactive). For the same molecule, the GI50 in the assay with HOP-62 is 18.5 µM (inactive); with LOX IMVI it was 12.5 µM (inactive); with M14, 15.6 µM (inactive); in the assay with MCF7 it was 20.6 µM (inactive); with MDA-N, 20.9 µM (inactive); with NCI-H226, 16.9 µM (inactive). In addition, the GI50 in the assay with NCI-H23 is 12.5 µM (inactive); in the assay with OVCAR-4 it was 18 µM (inactive); in the assay on PC-3 it was 13.4 µM (inactive); with SF-295, 16.3 µM (inactive); in the assay on SW-620, 12 µM (inactive); with UACC-62 it was 17.1 µM (inactive). In addition, the GI50 in the assay with UO-31 was 12.4 µM (inactive).

Regarding `CC(=O)N1NC(c2ccccc2)=CC(=O)/C1=C/C(=O)c1ccccc1`, the GI50 was > 100 µM (inactive) in the assay on 786-0; 53.1 µM (inactive) in the assay with A549; 29.7 µM (inactive) in the assay with CAKI-1; 29.8 µM (inactive) with CCRF-CEM; > 100 µM (inactive) in the assay on COLO 205; 49.2 µM (inactive) in the assay with EKVX. In addition, the GI50 is 88.1 µM (inactive) in the assay on HOP-62; 40.9 µM (inactive) with LOX IMVI; 82.2 µM (inactive) with M14; 43.7 µM (inactive) with MCF7; 30.6 µM (inactive) in the assay on MDA-N; 93.8 µM (inactive) in the assay on NCI-H226. Moreover, the GI50 in the assay on NCI-H23 was > 100 µM (inactive); in the assay with OVCAR-4, 84.1 µM (inactive); in the assay with PC-3 it was > 100 µM (inactive); in the assay with SF-295 it was 58.2 µM (inactive); in the assay on TK-10, 48.8 µM (inactive); in the assay with UACC-62, 42.5 µM (inactive). In the assay with UO-31, the GI50 is 98.4 µM (inactive).

Consider `CO/C=C(/C(=O)OC)c1ccccc1Oc1c(F)c(F)c(F)c(F)c1F`, for which the GI50 with 786-0 was 33.7 µM (inactive); in the assay on A549, 34.8 µM (inactive); in the assay with CAKI-1, 12.8 µM (inactive); with CCRF-CEM, 30.1 µM (inactive); in the assay on COLO 205, 17.6 µM (inactive); in the assay with EKVX, 32.7 µM (inactive). Moreover, the GI50 with HOP-62 is 53.6 µM (inactive); with LOX IMVI it was 32.4 µM (inactive); with M14, 35.3 µM (inactive); in the assay on MCF7 it was 38.2 µM (inactive); with MDA-N it was 41.6 µM (inactive); with NCI-H226, 38.2 µM (inactive). Further, the GI50 was 37.7 µM (inactive) in the assay on NCI-H23; 24.4 µM (inactive) in the assay with OVCAR-4; 34.8 µM (inactive) in the assay on PC-3; 54.5 µM (inactive) with SF-295; 28.5 µM (inactive) with TK-10; 21.9 µM (inactive) in the assay on UACC-62. The GI50 in the assay on UO-31 is 32.2 µM (inactive).

As for `CCOC(=O)C1C(=O)CC(O)(c2ccccc2)C(C(=O)OCC)C1c1ccc(OC)cc1` (centres undefined), the GI50 with 786-0 was 22.6 µM (inactive); in the assay with A549, 47 µM (inactive); in the assay on CAKI-1, 44.8 µM (inactive); with CCRF-CEM it was 18.2 µM (inactive); with COLO 205, 12.8 µM (inactive); in the assay with EKVX it was > 50.7 µM (inactive). In addition, the GI50 was 25.5 µM (inactive) in the assay with HOP-62; 18.7 µM (inactive) with LOX IMVI; 10.4 µM (inactive) with M14; 27 µM (inactive) with MCF7; 3.18 µM (inactive) with MDA-N; 32.4 µM (inactive) in the assay on NCI-H226. The GI50 in the assay with NCI-H23 is 31 µM (inactive); with OVCAR-4 it was 28.6 µM (inactive); in the assay with PC-3, 16.4 µM (inactive); in the assay on SF-295, 3.24 µM (inactive); in the assay with SW-620, 12.2 µM (inactive); with TK-10, 65.5 µM (inactive). The figures for the GI50 in the assay with UACC-62 and in the assay with UO-31 were 21.9 µM (inactive) and 61.2 µM (inactive), respectively.

As to `CC(=O)C(C(=N)C#N)C(=O)Nc1ccccc1` (centres undefined), the GI50 in the assay with 786-0, in the assay on A549, in the assay with CAKI-1, in the assay with CCRF-CEM, with COLO 205 and in the assay with EKVX was > 100 µM (inactive) throughout. Besides, the GI50 with HOP-62, in the assay on LOX IMVI, in the assay on M14, in the assay on MCF7, in the assay on MDA-N and in the assay on NCI-H226 was > 100 µM (inactive) throughout. The GI50 in the assay on NCI-H23, with OVCAR-4, with PC-3, in the assay with SF-295, in the assay with SW-620 and in the assay with TK-10 was > 100 µM (inactive) each time. The GI50 in the assay on UACC-62 is > 100 µM (inactive).

In the case of `O=C1Nc2ccccc2/C1=C1/Nc2ccccc2/C1=N/OCCOCCO`, the GI50 was 2.48 µM (inactive) in the assay with 786-0; 1.69 µM (inactive) in the assay on A549; 0.201 µM (active) in the assay on CAKI-1; 3.27 µM (inactive) with CCRF-CEM; 1.39 µM (inactive) with COLO 205; 2.67 µM (inactive) in the assay on EKVX. Besides, the GI50 with HOP-62 is 3.9 µM (inactive); with LOX IMVI, 0.869 µM (active); in the assay with M14, 1.9 µM (inactive); in the assay with MCF7, 1.99 µM (inactive); in the assay on MDA-N it was 3.24 µM (inactive); with NCI-H226 it was 0.547 µM (active). The GI50 in the assay on NCI-H23 was 3.07 µM (inactive); in the assay on OVCAR-4, 7.19 µM (inactive); in the assay on PC-3 it was 2.36 µM (inactive); in the assay on SF-295, 3.1 µM (inactive); in the assay on SW-620, 1.82 µM (inactive); in the assay with TK-10, 1.86 µM (inactive). In addition, the GI50 is 1.44 µM (inactive) with UACC-62 and 0.662 µM (active) in the assay with UO-31.

Regarding `CC1(C)[C@@H](Cn2cnc3c(O)nc(N)nc32)CC[C@@]1(C)CO`, the GI50 with 786-0, with A549, with CAKI-1, in the assay on CCRF-CEM, in the assay with EKVX and with HOP-62 was > 100 µM (inactive) in each case. In addition, the GI50 in the assay on LOX IMVI, in the assay on M14, in the assay on MCF7, in the assay on MDA-N, in the assay on NCI-H226 and in the assay on OVCAR-4 was > 100 µM (inactive) each time. Besides, the GI50 in the assay with PC-3 is > 100 µM (inactive); in the assay on SF-295, > 100 µM (inactive); with SW-620 it was > 100 µM (inactive); in the assay with TK-10, > 100 µM (inactive); in the assay on UACC-62 it was 60.5 µM (inactive); in the assay on UO-31, > 100 µM (inactive).
